{"source": "patent US8207211B2", "about": "“Photosensitizers for targeted photodynamic therapy” (The General Hospital Corporation, priority 2005, dated 2012)", "key": {"[1]": {"test_system": "E. coli", "assay": "Photodynamic inactivation (PDI), CFU survival, 405-nm light (Example 8)", "type": "cell-based, Escherichia coli", "conditions": "10-20 μM, 16 J/cm^2 of 405-nm light", "description": "Four microbial species were used in this study. Briefly, Escherichia coli was purchased from ATCC (ATCC #25922), Pseudomonas aeruginosa, two clinical isolates, were obtained; UCBP PA 14 from L. Rahme (Massachusetts General Hospital) and PA 767K from Kim Lewis (Tufts University), slime deficient mutant of Staphylococcus aureus was obtained from Gerald B Pier (Channing Laboratories). Yeast strain Candida albicans was purchased from ATCC (ATCC #18804). Exponential cultures obtained by reculturing stationary overnight cultures were used for all experiments. Bacteria were grown at 37° C. in BHI broth to a cell density of 10^8 cells per mL. C. albicans was grown 37° C. in YM medium to 10^7 cells/mL.\nSix fullerene derivatives (NI1-3 and CI1-3) were evaluated. […] Concentration of fullerene derivatives used in the experiments varied between 1 and 100 μM.\nFullerene derivatives were mixed with microbial suspensions and incubated in the dark at room temperature for 10 minutes. Excess fullerenes were either washed out of, or left in, the suspensions before illumination. […]\nDuring illumination, aliquots of 20 μL were taken to determine the colony-forming units. […] Colonies were counted and survival fraction was determined as percent of survival compared to control. […]"}, "[2]": {"test_system": "P. aeruginosa", "assay": "Photodynamic inactivation (PDI), CFU survival, white light (red light for TBO)", "type": "cell-based, Pseudomonas aeruginosa", "conditions": "10 μM, 10 min, white light up to 50 J/cm^2", "method": "Staphylococcus aureus (ATCC #35556), Escherichia coli (ATCC #25922), and Pseudomonas aeruginosa (ATCC #BAA-47; PAO1) were cultured in brain-heart infusion (BHI) broth (Difco, BD Diagnosttic Systems, Sparks, Md.) at 37° C. in aerobic conditions in a shaker at 150 rpm. Candida albicans (ATCC #18804) is grown in YM broth (Difco). Exponential cultures obtained by reculturing stationary overnight precultures were used for experiments.\nE. coli, P. aeruginosa, and S. aureus are grown in fresh medium for approximately 1 hr to a density of about 10^8 cells/ml; the OD values at 650 nm are 0.6, 0.8, and 0.8, respectively. C. albicans is grown for approximately 4 hr to an approximate density of 10^8 cells/ml, corresponding to an OD of 6 at 650 nm (measured at 10-fold dilution). Cells were used for experiments in the mid-log growth phase.\nA noncoherent lamp with filtered liquid light guides, e.g., a LumaCare™ LC122 lamp (MBG Technologies, Inc., Newport Beach, Calif.) was used to provide illumination of PS. More specifically, for illumination of fullerenes, a broad-band white light band pass filter (400-700 nm) was used, whereas for TBO, a band pass filter at 620-650 nm was used. The lamp was adjusted to give a uniform spot of about 4 cm diameter with an irradiance of 200 mW/cm^2, as measured with a power meter, e.g., a model DMM 199 meter with 201 Standard head (Coherent, Santa Clara, Calif.).\nTypically, derivatized fullerenes prepared as described above are dissolved in DMSO to provide stock solutions having final concentrations of about 5 mM. […] All stock solutions were stored in the dark at room temperature.\nIn some experiments, for example in studies described in Examples below, suspensions of S. aureus cells (10^8 per ml) were incubated with derivatized fullerenes such as NI-1-3 and CI1-3 at a concentration of 100 μM in PBS at room temperature for 10 min. In other experiments, the bacterial suspension was centrifuged (4000×g for 10 min) after incubation and resuspended in fresh PBS before illumination; the latter procedure was referred to herein as a “wash.” E. coli, P. aeruginosa, and C. albicans were used at concentrations of about 10^8 cells per ml.\nIllumination was carried out from above on microbial cell suspensions in wells of a 24-well plate. Aliquots were removed at times corresponding to the delivery of calculated fluences of light, and were serially diluted in PBS and streaked on square BHI or YM agar plates according to the method of Jett et al. (Jett, B. D., Hatter, K. L., Huycke, M. M., and Gilmore, M. S. (1997). Simplified agar plate method for quantifying viable bacteria. Biotechniques 23, 648-650). Survival fractions were calculated with reference to cells incubated in PBS alone. Values on killing curves at 0 J/cm^2 represent the dark toxicity of the fullerenes or other PS tested. Control cells were treated with light and no PS and also analyzed for viability."}}}
{"smiles": "C[N+]1(C)Cc2c(c3c4ccc5c6ccc7c8ccc9c%10c%11c%12c(c2c2c3c3c4c5c4c6c7c5c8c9c%11c6c(c%122)c3c4c56)C2C[N+](C)(C)CC%102)C1", "note": "(centres unmarked) [CI2]", "values": [{"measurement": "killing of E. coli", "setting": "[1]", "value": "high levels of killing"}, {"measurement": "PDT activity against P. aeruginosa", "setting": "[2]", "value": "effectively killed"}]}
